Assay results reported in patent US6524630B2, “Use of cocoa procyanidins combined with acelylsalicyclic acid as an anti-platelet therapy” (Mars, Incorporated, priority 2000, dated 2003).
Marks after values point to notes of the source that are not given here.

Key:
Type in all cases: in vivo, human
[1] = test system: leukotrienes C4, D4 and E4; assay: Immunoassay of leukotrienes in blood after treatment
Method: Blood was drawn from the subjects prior to consumption of any food. After the initial blood was drawn, the subjects were divided into four groups. One group consumed 81 mg of aspirin (acetylsalicylic acid) (Bayer pediatric aspirin). A second group consumed a high cocoa polyphenol beverage consisting of 18.75 g of procyanidin enriched cocoa powder derived from Sulawesi beans (containing 51.1 mg/g of total procyanidins, 11.2% fat, 0.092% caffeine, 1.618% theobromine) and 12.5 g of sucrose mixed with 300 ml of distilled water. A third group consumed the high cocoa procyanidin beverage and 81 mg of baby aspirin. The final group consumed 81 mg of baby aspirin and a procyanidin deficient cocoa beverage consisting of 18.75 g of cocoa powder (containing 0.45 mg/g total procyanidins, 9.87% fat, 2.063% theobromine, 0.234% caffeine) and 12.5 g of sucrose mixed with 300 ml of distilled water. During the test period the subjects were permitted to consume water, caffeine-free diet soda, bagels, low fat cream cheese, and bananas. Blood was drawn from each of the subjects two hours and six hours post consumption of the treatment. Venous blood was aspirated into evacuated tubes containing 0.5 ml of 3.2% buffered sodium citrate solution. The blood samples were also analyzed for changes in leukotriene, prostacyclin and thromboxane levels resulting from the four treatment regimes. Immunoassay procedures were conducted as described by Westcott et al, “Analysis Of 6-Keto PGF1 Alpha, 5-HETE, And LTC4 In Rat Lung: Comparison Of GM/MS, RIA and EIA”, Prostaglandins 32:857-873, 1986; Yakota et al, “Enzyme Immunoassay Of Prostanoids In Blood And Urine”, Adv. Prostgl.Thrombox. Leukot. Res. 15:33-34, 1985; and Schramm et al, “Differential Effects of Small and Large Molecular Weight Phytochemicals on Endothelial Cell Eicosanoid Secretion” J Agric Food Chem 46:1900-1905, 1998. The prostacyclin (PGI2) metabolite 6-keto prostaglandin F1-alpha was measured with Cayman enzyme immunoassay #515211, the thromboxane (TXA2) metabolite TXB2 was measured with Cayman enzyme immunoassay 519031, and leukotrienes C4, D4 and E4 were quantified using the immunoassay EA-39 from Oxford Biomedical Research. P values were calculated using the paired sample T-test. Values of p<0.05 were considered to be statistically significant.

[2] = test system: thromboxane (TXA2) metabolite TXB2; assay: Enzyme immunoassay of thromboxane metabolite in blood after treatment
Method: Blood was drawn from the subjects prior to consumption of any food. After the initial blood was drawn, the subjects were divided into four groups. One group consumed 81 mg of aspirin (acetylsalicylic acid) (Bayer pediatric aspirin). A second group consumed a high cocoa polyphenol beverage consisting of 18.75 g of procyanidin enriched cocoa powder derived from Sulawesi beans (containing 51.1 mg/g of total procyanidins, 11.2% fat, 0.092% caffeine, 1.618% theobromine) and 12.5 g of sucrose mixed with 300 ml of distilled water. A third group consumed the high cocoa procyanidin beverage and 81 mg of baby aspirin. The final group consumed 81 mg of baby aspirin and a procyanidin deficient cocoa beverage consisting of 18.75 g of cocoa powder (containing 0.45 mg/g total procyanidins, 9.87% fat, 2.063% theobromine, 0.234% caffeine) and 12.5 g of sucrose mixed with 300 ml of distilled water. During the test period the subjects were permitted to consume water, caffeine-free diet soda, bagels, low fat cream cheese, and bananas. Blood was drawn from each of the subjects two hours and six hours post consumption of the treatment. Venous blood was aspirated into evacuated tubes containing 0.5 ml of 3.2% buffered sodium citrate solution.
The blood samples were also analyzed for changes in leukotriene, prostacyclin and thromboxane levels resulting from the four treatment regimes. Immunoassay procedures were conducted as described by Westcott et al, “Analysis Of 6-Keto PGF1 Alpha, 5-HETE, And LTC4 In Rat Lung: Comparison Of GM/MS, RIA and EIA”, Prostaglandins 32:857-873, 1986; Yakota et al, “Enzyme Immunoassay Of Prostanoids In Blood And Urine”, Adv. Prostgl.Thrombox. Leukot. Res. 15:33-34, 1985; and Schramm et al, “Differential Effects of Small and Large Molecular Weight Phytochemicals on Endothelial Cell Eicosanoid Secretion” J Agric Food Chem 46:1900-1905, 1998. The prostacyclin (PGI2) metabolite 6-keto prostaglandin F1-alpha was measured with Cayman enzyme immunoassay #515211, the thromboxane (TXA2) metabolite TXB2 was measured with Cayman enzyme immunoassay 519031, and leukotrienes C4, D4 and E4 were quantified using the immunoassay EA-39 from Oxford Biomedical Research. P values were calculated using the paired sample T-test. Values of p<0.05 were considered to be statistically significant.

[3] = test system: prostacyclin (PGI2) metabolite 6-keto prostaglandin F1-alpha; assay: Enzyme immunoassay of prostacyclin metabolite in blood after treatment
Method: Blood was drawn from the subjects prior to consumption of any food. After the initial blood was drawn, the subjects were divided into four groups. One group consumed 81 mg of aspirin (acetylsalicylic acid) (Bayer pediatric aspirin). A second group consumed a high cocoa polyphenol beverage consisting of 18.75 g of procyanidin enriched cocoa powder derived from Sulawesi beans (containing 51.1 mg/g of total procyanidins, 11.2% fat, 0.092% caffeine, 1.618% theobromine) and 12.5 g of sucrose mixed with 300 ml of distilled water. A third group consumed the high cocoa procyanidin beverage and 81 mg of baby aspirin. […] The blood samples were also analyzed for changes in leukotriene, prostacyclin and thromboxane levels resulting from the four treatment regimes. […] The prostacyclin (PGI2) metabolite 6-keto prostaglandin F1-alpha was measured with Cayman enzyme immunoassay #515211, the thromboxane (TXA2) metabolite TXB2 was measured with Cayman enzyme immunoassay 519031, and leukotrienes C4, D4 and E4 were quantified using the immunoassay EA-39 from Oxford Biomedical Research. P values were calculated using the paired sample T-test. […]

[4] = test system: activated conformation of the GPIIb/IIIa platelet receptor; assay: Ex vivo flow cytometry (PAC1) of activated GPIIb/IIIa on platelets after treatment; conditions: at 6 hours compared to baseline
Method: The subjects used in the previous study also participated in the surface protein expression study. The methodology with respect to treatment regimes and collection of blood was identical to that which was outlined in the previous example. Within 10 minutes of draw, whole blood was incubated in polystyrene tubes for 5 minutes at room temperature with 10 μm HEPES buffer (pH 7.4, unstimulated control), 20 or 100 μm ADP or 20 μtm epinephrine (BioData, Horsham, Pa.) in the presence or absence of the peptide […] (Sigma, St. Louis, Mo.). After 5 minutes, samples were suspended in 1 ml HEPES buffer and 100 μm of sample were transferred to tubes containing saturating concentrations (20 μm ) each of the following fluorescent-labeled monoclonal antibodies: PAC1-fluorescein isothiocyanate (FITC), anti-CD62P-phycoerythrin (PE) and anti-CD42a-PerCP. PAC1 recognizes the activated conformation of the fibrinogen-binding receptor GPIIb-IIIa and anti-CD62P recognizes P-selectin, present on the surface of activated platelets. […] All samples were analyzed within 48 hours on a FACScan flow cytometer using […] software. […] Twenty thousand events were collected in list mode with all light-scatter and fluorescence parameters in logarithmic code. […] The platelet-dependent hemostasis data were also analyzed for statistical differences among treatment groups for each time point, baseline, 2 and 6 hour.

P-selectin (CD62P) = assay: Ex vivo flow cytometry of platelet surface expression of P-selectin after treatment
Method: The subjects used in the previous study also participated in the surface protein expression study. The methodology with respect to treatment regimes and collection of blood was identical to that which was outlined in the previous example. Within 10 minutes of draw, whole blood was incubated in polystyrene tubes for 5 minutes at room temperature with 10 μm HEPES buffer (pH 7.4, unstimulated control), 20 or 100 μm ADP or 20 μtm epinephrine (BioData, Horsham, Pa.) in the presence or absence of the peptide […] (Sigma, St. Louis, Mo.). After 5 minutes, samples were suspended in 1 ml HEPES buffer and 100 μm of sample were transferred to tubes containing saturating concentrations (20 μm ) each of the following fluorescent-labeled monoclonal antibodies: PAC1-fluorescein isothiocyanate (FITC), anti-CD62P-phycoerythrin (PE) and anti-CD42a-PerCP. PAC1 recognizes the activated conformation of the fibrinogen-binding receptor GPIIb-IIIa and anti-CD62P recognizes P-selectin, present on the surface of activated platelets. Anti-CD42a recognizes GP1b-1X, which is on the surface of both activated and resting platelets. Mouse IgG, FITC and mouse IgG, PE were used as isotype controls. The […]-peptide was used to block binding of the PAC1 antibody to platelets and thus set the negative control marker on the flow cytometer. Antibodies and isotype controls were purchased from Becton Dickinson Immunocytometry Systems, Inc., San Jose, Calif. Whole blood samples in the presence and absence of the agonists ADP and epinephrine were incubated with monoclonal antibodies or isotype control for 20 minutes in the dark at room temperature. Samples were then fixed in filtered 1% paraformaldehyde (pH 7.2) and stored in the dark at 2-8° C. All samples were analyzed within 48 hours on a FACScan flow cytometer using […] software. The flow cytometer performance was verified using 1, 2 and 10 μm calibration beads (Becton Dickinson Immunocytometry Systems, Inc., San Jose, Calif. and Flow Cytometry Systems, Research Triangle Park, N.C.). Twenty thousand events were collected in list mode with all light-scatter and fluorescence parameters in logarithmic code. Platelets were gated on the basis of […] CD42a expression. Activated platelets were defined as the percentage of CD42a positive events coexpressing the activated conformation of GPIIb-IIa or P-selectin. Platelet microparticles were defined as the percentage of CD42a positive events less than 2 μm in size. To perform the statistical analysis of the results, Friedman's repeated measures ANOVA on ranks (RM ANOVA on ranks) was used to compare the baseline, 2 and 6 hour results in each treatment group. Tukey's all pairwise comparison was used for post hoc multiple comparisons. […] The platelet-dependent hemostasis data were also analyzed for statistical differences among treatment groups for each time point, baseline, 2 and 6 hour.

CC(=O)Oc1ccccc1C(=O)O [Aspirin, acetylsalicylic acid]
LT/PG12 ratio ([1]; 2 hrs post consumption): 99
Leukotrienes ([1]; 2 hrs post consumption): 101
LT/PG12 ratio ([1]; 6 hrs post consumption): 100
Leukotrienes ([1]; 6 hrs post consumption): 100
TXB2/PG12 ratio ([2]; 2 hrs post consumption): 89
Thromboxane ([2]; 2 hrs post consumption): 91
TXB2/PG12 ratio ([2]; 6 hrs post consumption): 86
Thromboxane ([2]; 6 hrs post consumption): 89
Prostacyclin ([3]; 2 hrs post consumption): 103
Prostacyclin ([3]; 6 hrs post consumption): 104
epinephrine-induced GPIIb/IIIa expression [4]: suppressed
% CD62 + Platelets, Median (P-selectin (CD62P); 20 μM ADP, 0 Hour (before consumption)): 64.5%
% CD62 + Platelets, Median (P-selectin (CD62P); 20 μM ADP, 2 Hour): 60.3%
% CD62 + Platelets, Median (P-selectin (CD62P); 20 μM ADP, 6 Hour): 60.8%
% CD62 + Platelets, Median (P-selectin (CD62P); 20 μM Epinephrine, 0 Hour (before consumption)): 7.9%
% CD62 + Platelets, Median (P-selectin (CD62P); 20 μM Epinephrine, 2 Hour): 6.2%
% CD62 + Platelets, Median (P-selectin (CD62P); 20 μM Epinephrine, 6 Hour): 4.7* %
% CD62 + Platelets, Median (P-selectin (CD62P); Unstimulated, 0 Hour (before consumption)): 1.4%
% CD62 + Platelets, Median (P-selectin (CD62P); Unstimulated, 2 Hour): 1.5%
% CD62 + Platelets, Median (P-selectin (CD62P); Unstimulated, 6 Hour): 1.3%
epinephrine-induced P-selectin expression (P-selectin (CD62P); at 6 hours compared to baseline, in words): suppressed
